Test results published in patent EP4806898A1, “HETEROARYL DERIVATIVE COMPOUND AND USE THEREOF” (Voronoi Inc., priority 2023, dated 2025).
Like-named read-outs stand apart in the source and are kept apart here.

Tests used:
recombinant USP1 protein = molecular target: T1, recombinant USP1 protein (Homo sapiens, UniProt O94782, DEL125-138/DEL229-408/DEL608-737); test: Binding affinity to recombinant USP1 protein by differential scanning fluorimetry; conditions: read-out: ΔTm (°C)
T1 sequence (O94782 with tags, fused parts or gaps DEL125-138/DEL229-408/DEL608-737): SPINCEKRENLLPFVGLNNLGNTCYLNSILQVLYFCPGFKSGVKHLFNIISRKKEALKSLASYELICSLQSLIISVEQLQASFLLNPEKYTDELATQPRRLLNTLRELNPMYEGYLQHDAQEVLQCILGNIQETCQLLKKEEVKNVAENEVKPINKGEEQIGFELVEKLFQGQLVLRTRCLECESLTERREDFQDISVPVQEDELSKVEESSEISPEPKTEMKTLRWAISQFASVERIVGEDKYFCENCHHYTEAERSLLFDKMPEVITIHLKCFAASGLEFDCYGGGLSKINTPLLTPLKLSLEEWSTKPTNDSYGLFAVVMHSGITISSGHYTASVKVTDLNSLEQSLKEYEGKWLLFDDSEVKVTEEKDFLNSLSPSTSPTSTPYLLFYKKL
In short: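 USP1 (Δ1-66, Δ125-138, Δ229-408, Δ608-737) at 0.03 mg/mL with dye in 50 mM Tris-HCl pH 8.0, 150 mM NaCl, 2% glycerol, 1 mM DTT; compounds at 100 µM final. Tm read on real-time PCR instrument; ΔTm = Tm with compound minus Tm with DMSO.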

UWB1.289 cells = test: Cell proliferation inhibitory activity in BRCA1/2-mutant or HRD-positive cells (Cell Titer-Glo); assay type: cell-based; conditions: read-out: GI50 UWB1.289 BRCA1 mut
Experimental: <Experimental Example 2> Evaluation of Cell Proliferation Inhibitory Activity in BRCA1/2-Mutant or HRD-Positive Cells
To evaluate the inhibitory activity of the compound according to the present invention on the proliferation of BRCA1/2 mutants or homologous recombination deficient (HRD) positive cell lines, the following experiments were performed. UWB1.289 cells were cultured in medium (50% MEBM + 50% RPMI1640), and 1,000 cells were seeded in a well plate (black clear bottom 96-well plate, Corning) 16 to 24 hours prior to compound treatment. The compounds were diluted in dimethyl sulfoxide (3-fold serial dilution starting at 10 µM, for a total of 10 concentrations) and injected at 1 µl per well, resulting a final concentration range of […] to 10 µM. Measurements of live cells were performed by a reaction in a 37 °C and CO2 incubator for 144 hours after compound treatment. The cells were incubated for 10 minutes in an incubator using Cell Titer-Glo luminescent cell-viability reagent (Promega), and luminescence intensity thereof was measured using a reader (SynergyNeo2, Biotek). GI50 values were calculated using the GraphPad Prism version 8.4.3 (GraphPad software Inc., San Diego) program.

[1] = compound 100 µM, 0.03 mg/mL USP1 (Δ1-66, Δ125-138, Δ229-408, Δ608-737), Tm with compound minus Tm with DMSO
[2] = UWB1289, UWB1.289 cells, 144 hours after compound treatment, Cell Titer-Glo, 1.5 nM to 10 µM

ΔTm at 100 µM (recombinant USP1 protein; [1]) | Compound | GI50 (UWB1.289 cells; [2]) | ΔTm at 100 µM (recombinant USP1 protein) | GI50 (UWB1.289 cells; UWB1289, 144 h)
> 5 °C | CCNC(=O)c1cc2cnc(-c3c(OC)ncnc3C3CC3)nc2n1Cc1ccc(-c2nc(C(F)(F)F)cn2C(C)C)cc1 [Example 4, 2-(4-cyclopropyl-6-methoxypyrimidin-5-yl)-N-ethyl-7-(4-(1-isopropyl-4-(trifluoromethyl)-1H-imidazol-2-yl)benzyl)-7H-pyrrolo[2,3-d]pyrimidine-6-carboxamide] | < 100 nM | – | –
> 5 °C | COc1ncnc(C2CC2)c1-c1ncc2cc(C(=O)N3CC(O)C3)n(Cc3ccc(-c4nc(C(F)(F)F)cn4C)cc3)c2n1 [Example 196, (2-(4-cyclopropyl-6-methoxypyrimid in-5-yl)-7-(4-(1-methyl-4-(trifluoromethyl)-1H-imidazol-2-yl)benzyl)-7H-pyrrolo[2,3-d]pyrimidin-6-yl) (3-hydroxyazetidi n-1-yl)methanone] | < 100 nM | – | –
> 5 °C | COc1ncnc(C2CC2)c1-c1ncc2cc(C(=O)N[C@H]3CN(C)C[C@H]3F)n(Cc3ccc(-c4nc(C(F)(F)F)cn4C)cc3)c2n1 [Example 182, 2-(4-cyclopropyl-6-methoxypyrimidin-5-yl)-N-((3S,4R)-4-fluoro-1-methylpyrrolidin-3-yl)-7-(4-(1-methyl-4-(trifluoromethyl)-1H-imidazol-2-yl)benzyl)-7H-pyrrolo[2,3-d]pyrimidine-6-carboxamide] | < 100 nM | – | –
> 5 °C | COc1ncnc(C2CC2)c1-c1ncc2cc(C(=O)N(C)C3COC3)n(Cc3ccc(-c4nc(C(F)(F)F)cn4C(C)C)cc3)c2n1 [Example 111, 2-(4-cyclopropyl-6-methoxypyrimidin-5-yl)-7-(4-(1-isopropyl-4-(trifluoromethyl)-1H-imidazol-2-yl)benzyl)-N-methyl-N-(oxetan-3-yl)-7H-pyrrolo[2,3-d]pyrimidine-6-carboxamide] | 100 to 500 nM | – | –
> 5 °C | [2H]C([2H])([2H])N(C(=O)c1cc2cnc(-c3c(OC)ncnc3C3CC3)nc2n1Cc1ccc(-c2nc(C(F)(F)F)cn2C)cc1)C([2H])([2H])[2H] [Example 195, 2-(4-cyclopropyl-6-methoxypyrimidin-5-yl)-N,N-bis(methyl-d3)-7-(4-(1-methyl-4-(trifluoromethyl)-1H-imidazol-2-yl)benzyl)-7H-pyrrolo[2,3-d]pyrimidine-6-carboxamide] | 100 to 500 nM | – | –
> 5 °C | COc1ncnc(C2CC2)c1-c1ncc2cc(C(=O)N[C@@H]3CCN(C)C3)n(Cc3ccc(-c4nc(C(F)(F)F)cn4C(C)C)cc3)c2n1 [Example 175, (R)-2-(4-cyclopropyl-6-methoxypyrimidin-5-yl)-7-(4-(1-isopropyl-4-(trifluoromethyl)-1H-imidazol-2-yl)benzyl)-N-(1-methylpyrrolidin-3-yl)-7H-pyrrolo[2,3-d]pyrimidine-6-carboxamide] | < 100 nM | – | –
> 5 °C | COc1ncnc(C2CC2)c1-c1ncc2cc(C(=O)NC[C@H]3CCCN3)n(Cc3ccc(-c4nc(C(F)(F)F)cn4C(C)C)cc3)c2n1 [Example 58, (R) -2-(4-cyclopropyl-6-methoxypyrimidin-5-yl)-7-(4-(1-isopropyl-4-(trifluoromethyl)-1H-imidazol-2-yl)benzyl)-N-(pyrrolidin-2-ylmethyl)-7H-pyrrolo[2,3-d]pyrimidine-6-carboxamide] | < 100 nM | – | –
> 5 °C | COc1ncnc(C2CC2)c1-c1ncc2cc(C(=O)N3C[C@H](O)[C@H]3C)n(Cc3ccc(-c4nc(C(F)(F)F)cn4C(C)C)cc3)c2n1 [Example 112, (2-(4-cyclopropyl-6-methoxypyrimid in-5-yl)-7-(4-(1-isopropyl-4-(trifluoromethyl)-1H-imidazol-2-yl)benzyl)-7H-pyrrolo[2,3-d]pyrimidin-6-yl)((2R,3S)-3-hydroxy-2-methylazetidin-1-yl)methanone] | < 100 nM | – | –
> 5 °C | COc1ncnc(C2CC2)c1-c1ncc2cc(C(=O)NC3CN(C)C3)n(Cc3ccc(-c4nc(C(F)(F)F)cn4C(C)C)cc3)c2n1 [Example 110, 2-(4-cyclopropyl-6-methoxypyrimidin-5-yl)-7-(4-(1-isopropyl-4-(trifluoromethyl)-1H-imidazol-2-yl)benzyl)-N-(1-methylazetidin-3-yl)-7H-pyrrolo[2,3-d]pyrimidine-6-carboxamide] | 100 to 500 nM | – | –

Second part, the compound before the results:

Compound | ΔTm at 100 µM (recombinant USP1 protein; [1]) | GI50 (UWB1.289 cells; [2]) | ΔTm at 100 µM (recombinant USP1 protein) | GI50 (UWB1.289 cells; UWB1289, 144 h)
COc1ncnc(C2CC2)c1-c1ncc2cc(C(=O)N3CCCC3)n(Cc3ccc(-c4nc(C(F)(F)F)cn4C(C)C)cc3)c2n1 [Example 51, (2-(4-cyclopropyl-6-methoxypyrimid in-5-yl)-7-(4-(1-isopropyl-4-(trifluoromethyl)-1H-imidazol-2-yl)benzyl)-7H-pyrrolo[2,3-d]pyrimidin-6-yl)(pyrrolidin-1-yl)methanone] | > 5 °C | < 100 nM | – | –
[2H]C([2H])([2H])NC(=O)c1cc2cnc(-c3c(OC)ncnc3C3CC3)nc2n1Cc1ccc(-c2nc(C(F)(F)F)cn2C(C)C)cc1 [Example 9, 2-(4-cyclopropyl-6-methoxypyrimidin-5-yl)-7-(4-(1-isopropyl-4-(trifluoromethyl)-1H-imidazol-2-yl)benzyl)-N-(methyl-d3)-7H-pyrrolo[2,3-d]pyrimidine-6-carboxamide] | > 5 °C | 100 to 500 nM | – | –
COc1ncnc(C2CC2)c1-c1ncc2cc(C(N)=O)n(Cc3ccc(-c4nc(C(F)(F)F)cn4C(C)C)cc3)c2n1 [Example 32, 2-(4-cyclopropyl-6-methoxypyrimidin-5-yl)-7-(4-(1-isopropyl-4-(trifluoromethyl)-1H-imidazol-2-yl)benzyl)-7H-pyrrolo[2,3-d]pyrimidine-6-carboxamide] | > 5 °C | < 100 nM | – | –
COc1ncnc(C2CC2)c1-c1ncc2cc(C(=O)N3CC[C@@H](OC)C3)n(Cc3ccc(-c4nc(C(F)(F)F)cn4C(C)C)cc3)c2n1 [Example 123, (R) - (2-(4-cyclopropyl-6-methoxypyrimid in-5-yl)-7-(4-(1-isopropyl-4-(trifluoromethyl)-1H-imidazol-2-yl)benzyl)-7H-pyrrolo[2,3-d]pyrimidin-6-yl) (3-methoxypyrrolidin-1-yl)methanone] | – | – | > 5 °C | 100 to 500 nM
COc1ncnc(C2CC2)c1-c1ncc2cc(C(=O)N3CCC(F)(F)C3)n(Cc3ccc(-c4nc(C(F)(F)F)cn4C(C)C)cc3)c2n1 [Example 73, (2-(4-cyclopropyl-6-methoxypyrimid in-5-yl)-7-(4-(1-isopropyl-4-(trifluoromethyl)-1H-imidazol-2-yl)benzyl)-7H-pyrrolo[2,3-d]pyrimidin-6-yl)(3,3-difluoropyrrolidin-1-yl)methanone] | > 5 °C | 100 to 500 nM | – | –
COc1ncnc(C2CC2)c1-c1ncc2cc(C(=O)NC3CN(C)C3)n(Cc3ccc(-c4nc(C(F)(F)F)cn4C)cc3)c2n1 [Example 171, 2-(4-cyclopropyl-6-methoxypyrimidin-5-yl)-7-(4-(1-methyl-4-(trifluoromethyl)-1H-imidazol-2-yl)benzyl)-N-(1-methylazetidin-3-yl)-7H-pyrrolo[2,3-d]pyrimidine-6-carboxamide] | > 5 °C | < 100 nM | – | –
CNC(=O)c1cc2cnc(-c3c(OC)ncnc3C3CC3)cc2n1Cc1ccc(-c2nc(C(F)(F)F)cn2C(C)C)cc1 [Example 154, 6-(4-cyclopropyl-6-methoxypyrimidin-5-yl)-1-(4-(1-isopropyl-4-(trifluoromethyl)-1H-imidazol-2-yl)benzyl)-N-methyl-1H-pyrrolo[3,2-c]pyridine-2-carboxamide] | > 5 °C | < 100 nM | – | –
COc1ncnc(C2CC2)c1-c1ncc2cc(C(=O)N(C)C)n(Cc3ccc(-c4nc(C(F)(F)F)cn4C)cc3)c2n1 [Example 204, 2-(4-cyclopropyl-6-methoxypyrimidin-5-yl)-N,N-dimethyl-7-(4-(1-methyl-4-(trifluoromethyl)-1H-imidazol-2-yl)benzyl)-7H-pyrrolo[2,3-d]pyrimidine-6-carboxamide] | > 5 °C | < 100 nM | – | –
